Assay results: publication PMC9415638, “Discovery of novel thiazolyl-pyrazolines as dual EGFR and VEGFR-2 inhibitors endowed with in vitro antitumor activity towards non-small lung cancer” (Journal of Enzyme Inhibition and Medicinal Chemistry, 2022)

Assays:
[1] = target: T1, recombinant human VEGFR-2/KDR (Homo sapiens, UniProt P35968); assay: VEGFR-2 kinase assay (VEGFR-2/KDR ELISA kit); format: biochemical; settings: read-out: IC50 (nM) ± SEM VEGFR-2
T1 construct: purchased
Experimental: (§1) The EGFR kinase assay was carried out in 96-well plates coated with PGT (poly l-glutamic acid l-tyrosine, 4:1, Sigma Aldrich, St. Louis, MO) as previously described. IC50 values were calculated using GraphPad Prism 5. Each experiment was carried out at least three times. The VEGFR-2 kinase assay was carried out in 96-well streptavidin coated plate using recombinant human VEGFR-2/KDR ELISA kit according to manufacturer’s instructions.

[2] = tested on: A549 lung cancer cells; assay: Anti-proliferative MTT assay; settings: Homo sapiens, A549, 24 h; for inhibition at 10 µM: read-out: % Growth inhibition ± SEM A549; for IC50: read-out: IC50 (µM) ± SEM A549
[3] = target: EGFR (Homo sapiens, UniProt P00533); assay: EGFR kinase assay (PGT-coated 96-well plates); format: biochemical; settings: read-out: IC50 (nM) ± SEM EGFR
Sequence of EGFR (P00533 25-1210): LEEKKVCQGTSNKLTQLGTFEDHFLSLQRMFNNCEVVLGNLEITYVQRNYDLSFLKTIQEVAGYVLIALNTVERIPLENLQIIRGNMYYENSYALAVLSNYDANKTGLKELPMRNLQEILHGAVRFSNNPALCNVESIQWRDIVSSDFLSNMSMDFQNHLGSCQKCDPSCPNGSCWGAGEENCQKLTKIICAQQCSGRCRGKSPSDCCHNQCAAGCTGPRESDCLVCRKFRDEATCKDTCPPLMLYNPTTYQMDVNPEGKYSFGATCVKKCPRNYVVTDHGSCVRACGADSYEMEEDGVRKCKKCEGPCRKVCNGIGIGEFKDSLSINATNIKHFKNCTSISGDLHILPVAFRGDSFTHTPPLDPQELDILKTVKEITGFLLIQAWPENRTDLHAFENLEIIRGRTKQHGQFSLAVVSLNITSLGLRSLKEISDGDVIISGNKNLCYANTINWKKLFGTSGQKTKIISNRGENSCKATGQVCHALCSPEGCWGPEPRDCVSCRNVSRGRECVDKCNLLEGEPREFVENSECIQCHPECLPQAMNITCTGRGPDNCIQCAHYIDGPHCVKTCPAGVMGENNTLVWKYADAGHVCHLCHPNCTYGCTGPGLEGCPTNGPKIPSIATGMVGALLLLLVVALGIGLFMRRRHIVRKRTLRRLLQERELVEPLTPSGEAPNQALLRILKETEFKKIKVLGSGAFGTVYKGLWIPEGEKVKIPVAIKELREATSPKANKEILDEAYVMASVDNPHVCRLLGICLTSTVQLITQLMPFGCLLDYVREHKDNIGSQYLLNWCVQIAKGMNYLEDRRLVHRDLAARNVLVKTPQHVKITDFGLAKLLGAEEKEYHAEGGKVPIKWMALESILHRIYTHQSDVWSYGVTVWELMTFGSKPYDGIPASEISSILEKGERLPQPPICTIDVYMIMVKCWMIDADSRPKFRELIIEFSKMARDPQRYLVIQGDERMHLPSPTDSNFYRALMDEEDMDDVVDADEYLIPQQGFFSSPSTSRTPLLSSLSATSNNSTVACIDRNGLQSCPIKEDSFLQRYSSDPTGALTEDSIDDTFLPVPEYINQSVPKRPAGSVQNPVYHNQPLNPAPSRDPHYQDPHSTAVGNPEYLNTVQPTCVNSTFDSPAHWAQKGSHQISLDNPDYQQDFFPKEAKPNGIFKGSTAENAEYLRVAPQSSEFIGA
Experimental: as §1

[4] = tested on: H441 lung cancer cells; assay: Anti-proliferative MTT assay; settings: Homo sapiens, NCI-H441, 24 h; for inhibition at 10 µM: read-out: % Growth inhibition ± SEM H441; for IC50: read-out: IC50 (µM) ± SEM H441, MTT, 24 h, n = 3
[5] = tested on: MCF-7 breast cancer cells; assay: Anti-proliferative MTT assay; format: cell-based; settings: Homo sapiens, MCF7, 24 h, read-out: % Growth inhibition ± SEM MCF-7
Experimental: (§2) To evaluate the anti-proliferative activity of the synthesised thiazolyl-pyrazoline derivatives (7a–7d, 10a–10d, and 13a–13f), a preliminary in vitro one dose (10 µM) anticancer assay was performed. Nine cell lines derived from five tumour subpanels were examined; leukaemia (K562 and KG-1a), breast (MCF-7, BT-549 and HCC70), lung (A549 and H441), colon (HCT116) and liver (HepG2) cancer cell lines. The compounds were added at a single concentration (10 µM) and the cultures were incubated for 24 h, then the per cent growth inhibition (%GI) was calculated.
(§3) Human leukaemia (K562 and KG-1a), breast (MCF-7, BT-549 and HCC70), lung (A549, H441, NCI-H1650 and NCI-H1975), colon (HCT116), liver (HepG2) cancer cell lines and WI-38 human lung fibroblast cell line were obtained from the American Type Culture Collection (ATCC; Manassas, VA) and were cultured in their suitable media containing 10% foetal bovine serum (FBS; Sigma-Aldrich) in a humidified atmosphere with 5% CO2 at 37 °C. Gefitinib and vandetanib were purchased from Sigma-Aldrich. All chemicals used in this study were analytical or cell-culture grade.
(§4) Cytotoxicity was measured using the MTT assay. Human leukaemia (K562 and KG-1a), breast (MCF-7, BT-549 and HCC70), lung (A549, H441, NCI-H1650 and NCI-H1975), colon (HCT116), liver (HepG2) cancer cell lines and WI-38 human lung fibroblast cell line were plated at a density of 1 × 10^4 cells per well in 96-well plates overnight and then treated with the compounds. After 24 h treatment, 20 μL of MTT solution (2 mg/mL in phosphate-buffered saline [PBS]) was added to each well and the cells were cultured for another 4 h at 37 °C. The medium was aspirated and 150 μL DMSO was added to solubilise MTT formazan crystals. The plates were then shaken, and the optical density was determined at 570 nm using an ELISA plate reader (Model 550, Bio-Rad, Hercules, CA). At least three independent experiments were performed. The IC50 values were calculated using GraphPad Prism 5 (Version 5.01, GraphPad Software, San Diego, CA).

[6] = tested on: BT-549 breast cancer cells; assay: Anti-proliferative MTT assay; format: cell-based; settings: Homo sapiens, 24 h, read-out: % Growth inhibition ± SEM BT-549
Experimental: as §2, §3, §4

[7] = tested on: HCC70 breast cancer cells; assay: Anti-proliferative MTT assay; format: cell-based; settings: Homo sapiens, 24 h, read-out: % Growth inhibition ± SEM HCC70
Experimental: as §2, §3, §4

[8] = tested on: HepG2 liver cancer cells; assay: Anti-proliferative MTT assay; format: cell-based; settings: Homo sapiens, 24 h, read-out: % Growth inhibition ± SEM HepG2
Experimental: as §2, §3, §4

[9] = tested on: HCT116 colon cancer cells; assay: Anti-proliferative MTT assay; format: cell-based; settings: Homo sapiens, HCT-116, 24 h, read-out: % Growth inhibition ± SEM HCT116
Experimental: as §2, §3, §4

[10] = tested on: K562 leukaemia cells; assay: Anti-proliferative MTT assay; format: cell-based; settings: Homo sapiens, 24 h, read-out: % Growth inhibition ± SEM K562
Experimental: as §2, §3, §4

[11] = tested on: KG-1a leukaemia cells; assay: Anti-proliferative MTT assay; format: cell-based; settings: Homo sapiens, 24 h, read-out: % Growth inhibition ± SEM KG-1a
Experimental: as §2, §3, §4

[12] = tested on: WI-38 human lung fibroblast cells; assay: MTT cytotoxicity assay on normal cells; format: cell-based; settings: Homo sapiens, WI-38; normal lung fibroblasts, MTT, 24 h, n = 3; read-out: IC50 (µM) ± SEM WI-38
Experimental: All chemicals used in this study were analytical or cell-culture grade.
Cytotoxicity was measured using the MTT assay. […] The medium was aspirated and 150 μL DMSO was added to solubilise MTT formazan crystals. The plates were then shaken, and the optical density was determined at 570 nm using an ELISA plate reader (Model 550, Bio-Rad, Hercules, CA). At least three independent experiments were performed.

[13] = tested on: VEGFR-2; parameters: method as in PMID 30641320; settings: Figure 2; cited from earlier work
[14] = tested on: A549 cells; assay: Cell cycle analysis by flow cytometry (7AAD); format: cell-based, human; settings: A549, 20 µM, 24 h
Experimental: Figure 6. […] (A) Representative cell cycle distribution data are shown by flow cytometric analysis upon incubation with 0 (control), 2.5 or 5 μM of 10b or 10d or with 0 (control), 5 or 20 μM of gefitinib for 24 h. (B) Quantification of cell cycle distribution upon 24 h incubation with 10b or 10d.
DNA content was measured using 7-aminoactinmycin D (7AAD) (Biotium, Inc., Hayward, CA) staining and is commonly used for cell cycle phase analysis as previously described. Apoptosis was evaluated using the annexin V/propidium iodide (PI) staining kit (BioLegend, San Diego, CA) according to the manufacturer’s instructions and as previously described.

T1 sequence (P35968 20-1356): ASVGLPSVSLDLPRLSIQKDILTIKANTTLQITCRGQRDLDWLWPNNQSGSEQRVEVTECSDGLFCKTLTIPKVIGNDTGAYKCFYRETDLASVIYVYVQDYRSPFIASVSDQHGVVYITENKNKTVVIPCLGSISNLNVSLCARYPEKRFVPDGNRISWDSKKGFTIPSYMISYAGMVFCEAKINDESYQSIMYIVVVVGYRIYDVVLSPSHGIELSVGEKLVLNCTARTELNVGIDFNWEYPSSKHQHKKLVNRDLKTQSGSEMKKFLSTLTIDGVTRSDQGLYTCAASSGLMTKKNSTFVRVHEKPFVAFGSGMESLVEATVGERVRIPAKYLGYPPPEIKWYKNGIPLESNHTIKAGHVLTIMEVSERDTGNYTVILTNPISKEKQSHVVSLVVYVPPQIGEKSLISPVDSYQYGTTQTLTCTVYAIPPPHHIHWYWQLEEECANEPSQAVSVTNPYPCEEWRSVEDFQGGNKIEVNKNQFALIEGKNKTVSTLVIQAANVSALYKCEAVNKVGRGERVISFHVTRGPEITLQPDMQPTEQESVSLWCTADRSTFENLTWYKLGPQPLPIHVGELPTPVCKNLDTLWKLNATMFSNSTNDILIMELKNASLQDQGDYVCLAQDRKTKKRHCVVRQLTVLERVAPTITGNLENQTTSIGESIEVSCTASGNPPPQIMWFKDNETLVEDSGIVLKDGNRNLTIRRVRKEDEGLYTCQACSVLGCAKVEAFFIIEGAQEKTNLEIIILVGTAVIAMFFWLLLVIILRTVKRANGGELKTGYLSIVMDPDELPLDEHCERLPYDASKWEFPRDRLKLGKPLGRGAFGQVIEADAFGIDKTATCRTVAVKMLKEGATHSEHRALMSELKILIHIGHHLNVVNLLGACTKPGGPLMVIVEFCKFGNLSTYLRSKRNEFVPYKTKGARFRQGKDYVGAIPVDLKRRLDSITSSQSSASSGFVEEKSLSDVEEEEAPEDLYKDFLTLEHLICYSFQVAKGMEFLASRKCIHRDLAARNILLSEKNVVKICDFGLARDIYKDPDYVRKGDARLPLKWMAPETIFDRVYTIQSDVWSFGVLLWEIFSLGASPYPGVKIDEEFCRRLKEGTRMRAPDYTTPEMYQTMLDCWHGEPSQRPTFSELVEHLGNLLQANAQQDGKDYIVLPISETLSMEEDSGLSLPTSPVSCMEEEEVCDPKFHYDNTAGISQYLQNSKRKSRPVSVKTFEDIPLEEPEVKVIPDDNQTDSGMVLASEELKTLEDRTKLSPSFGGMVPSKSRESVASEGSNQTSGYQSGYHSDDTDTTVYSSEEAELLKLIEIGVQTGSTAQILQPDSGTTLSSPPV

Row | SMILES | IC50 [1] [nM] | IC50 [2] [µM] | IC50 [3] [nM] | IC50 [4] [µM] | melting point [°C] | inhibition at 10 µM [2] [%] | inhibition at 10 µM [4] [%] | inhibition at 10 µM [5] [%] | inhibition at 10 µM [6] [%] | inhibition at 10 µM [7] [%] | inhibition at 10 µM [8] [%] | inhibition at 10 µM [9] [%] | inhibition at 10 µM [10] [%] | inhibition at 10 µM [11] [%] | IC50 [12] [µM] | IC50 [13] [µM] | cell cycle arrest phase [14]
1 | CN(C)c1ccc(C2CC(c3c(O)c4ccccc4oc3=O)=NN2c2nc(-c3ccccc3)c(/N=N/c3ccc(Cl)cc3)s2)cc1 (centres unmarked) [Compound IV] |  |  |  |  |  |  |  |  |  |  |  |  |  |  |  | 0.034 | 
2 | COc1cc2ncnc(Nc3ccc(F)c(Cl)c3)c2cc1OCCCN1CCOCC1 [Gefitinib, reference compound] |  |  |  |  |  |  |  |  |  |  |  |  |  |  |  |  | significantly arrested the cell cycle at G1 phase

Second part, led by results:

Row | IC50 [1] [nM] | IC50 [2] [µM] | IC50 [3] [nM] | IC50 [4] [µM] | melting point [°C] | SMILES | inhibition at 10 µM [2] [%] | inhibition at 10 µM [4] [%] | inhibition at 10 µM [5] [%] | inhibition at 10 µM [6] [%] | inhibition at 10 µM [7] [%] | inhibition at 10 µM [8] [%] | inhibition at 10 µM [9] [%] | inhibition at 10 µM [10] [%] | inhibition at 10 µM [11] [%] | IC50 [12] [µM] | IC50 [13] [µM] | cell cycle arrest phase [14]
3 | 173 ± 2.6 | 46.3 ± 2.5 | 134 ± 1.5 | 33.5 ± 3.9 | 170 to 171 | COc1ccc(C2CC(c3ccc(Cl)cc3Cl)=NN2c2nc(C)c(N=Nc3ccc(Cl)cc3)s2)cc1 (centres unmarked) [Compound 13c, 5-((4-Chlorophenyl)diazenyl)-2-(3-(2,4-dichlorophenyl)-5-(4-methoxyphenyl)-4,5-dihydro-1H-pyrazol-1-yl)-4-methylthiazole] | 14.8 ± 1 | 19.9 ± 1.7 | 10.4 ± 2.9 | 8.7 ± 1.9 | 1.1 ± 0.1 | 14.2 ± 1 | 8.7 ± 0.6 | 5.2 ± 0.9 | 12.4 ± 1.6 | 91.4 ± 8.9 |  | 
4 | 336 ± 6.3 | 57.1 ± 4.1 | 93.6 ± 3 | 21.7 ± 1.3 | 187 to 188 | COc1ccc(C2CC(c3ccc(Cl)cc3Cl)=NN2c2nc(C)c(N=Nc3ccccc3)s2)cc1OC (centres unmarked) [Compound 13d, 2-(3-(2,4-Dichlorophenyl)-5-(3,4-dimethoxyphenyl)-4,5-dihydro-1H-pyrazol-1-yl)-4-methyl-5-(phenyldiazenyl)thiazole] | 12.6 ± 2.7 | 38.9 ± 2.4 | 11.9 ± 1.8 | 14.2 ± 2.2 | 22.3 ± 1.3 | 18.6 ± 2.5 | 10.1 ± 3.5 | 18.2 ± 1.8 | 24.1 ± 2.7 | 64.2 ± 2.8 |  | 
5 | 216 ± 4.3 | 19.1 ± 1.3 | 67.7 ± 2 | 15.2 ± 3.6 | 176 to 177 | COc1ccc(C2CC(c3ccc(Cl)cc3Cl)=NN2c2nc(C)c(N=Nc3ccc(C)cc3)s2)cc1OC (centres unmarked) [Compound 13e, 2-(3-(2,4-Dichlorophenyl)-5-(3,4-dimethoxyphenyl)-4,5-dihydro-1H-pyrazol-1-yl)-4-methyl-5-(p-tolyldiazenyl)thiazole] | 30.3 ± 2.4 | 46.9 ± 3.9 | 1.8 ± 0.6 | 12.5 ± 1.5 | 16.1 ± 0.9 | 0.3 | 9.9 ± 0.8 | 24 ± 2 | 15.2 ± 1.8 | 87 ± 4.2 |  | 
6 | 113 ± 1.8 | 13.7 ± 2.2 | 107 ± 1.2 | 24.8 ± 1.4 | 190 to 191 | COc1ccc(C2CC(c3ccc(Cl)cc3Cl)=NN2c2nc(C)c(N=Nc3ccc(Cl)cc3)s2)cc1OC (centres unmarked) [Compound 13f, 5-((4-Chlorophenyl)diazenyl)-2-(3-(2,4-dichlorophenyl)-5-(3,4-dimethoxyphenyl)-4,5-dihydro-1H-pyrazol-1-yl)-4-methylthiazole] | 47.5 ± 3.1 | 17.3 ± 0.6 | 0.8 ± 0.2 | 24.6 ± 1.3 | 6.3 ± 1 | 0.9 ± 0.3 | 0.2 | 31.5 ± 1 | 20 ± 2.8 | > 100 |  | 
